From patent US20250170090A1, “METHOD FOR PREVENTING OR TREATING DISEASE OR DISORDER ASSOCIATED WITH ANTINEOPLASTIC AGENT” (ONQUALITY PHARMACEUTICALS CHINA LTD., priority 2022, published 2025)

Key:
[1] = system: human oral keratinocytes (HOK); assay: CCK-8 cell viability: alleviation of proliferative toxicity of anti-tumor agents on HOK (Table 8-2); type: cell-based; details: NO-NSAID 100 μM
Experimental: (§1) Experiments were conducted using various epithelial cells: Examples 47-51 used human immortalized keratinocytes (HaCaT) with corresponding results in Table 8-1; Examples 52-56 used human oral keratinocytes (HOK) with results in Table 8-2; Examples 57-61 used gastric epithelial cells (GES-1) with results in Table 8-3; Examples 62-66 used human intestinal epithelial cells (FHs 74 Int) with results in Table 8-4.
(§2) The cultured cells were digested the suspended, counted, and seed into a 96-well plate with 5,000-10,000 cells per well. The wells are divided into the following groups: blank control group, anti-tumor agent group, anti-tumor agent+NO-NSAID group, anti-tumor agent solvent group, NO-NSAID solvent control group. Wherein each well of each group contained a basic medium, and the final liquid volume contained in each well was about 100 μL. The grouping situation was as follows: • 1) Blank control group: no solution was added except normally replacing the medium; • 2) Anti-tumor agent group: added the anti-tumor agent solution (the final concentration was shown in Table 8-1 to Table 8-4, the solvent of the anti-tumor agent solution was DMSO); • 3) Anti-tumor agent+NO-NSAID group: added the anti-tumor agent solution and the NO-NSAID solution (the final concentrations of anti-tumor agent and NO-NSAID were shown in Table 8-1 to Table 8-4, and according to the solubility of NO-NSAID, the solvent of NO-NSAID solution was selected as ethanol or sterile water, and minor volume differences in each group were adjusted by added the corresponding solvent); • 4) Anti-tumor agent solvent group: an equal volume of DMSO as contained in the corresponding anti-tumor agent solution in Group 2) was added; • 5) NO-NSAID control group: the same volume and type of solvent (for example, ethanol or sterile water) corresponding to the NO-NSAID contained in group 3) was added.
(§3) The anti-tumor agent solvent group was not involved in data processing and was only used as a reference for evaluating experimental system error. The NO-NSAID solvent control group was used for data correction to eliminate the influence of the solvent on the results.
(§4) After culturing for 24-48 hours, the Cell Counting Kit-8 (CCK-8) detection kit (C0037, Shanghai Beyotime Biotechnology Co., Ltd., Beyotime Biotechnology) was used to determine the cell viability. This allows for the calculation of the proliferative toxicity of anti-tumor agent on cell and the mitigating effect of NO-NSAID on proliferative toxicity. The results were statistically analyzed and plotted using GraphPad Prism 6.0 software and t test.

[2] = system: chemotherapy-induced hand-foot syndrome; assay: Prevention of chemotherapy-induced hand-foot syndrome in rat models (Table 5); type: in vivo, SD rats
Experimental: Rat animal model was constructed. After several days, the rats develop hand-foot syndrome in their paws. After one week of acclimatization (about 200 g), the SD rats are divided into groups of 10 rats each, followed by gavage administration experiment. The chemotherapy drugs were dissolved, and each rat was given a gavage dose of 1 mL/100 g. After gavage, the rats were fixed with a fixed cylinder. NO-NSAID ointment was applied to the paws of the rats in the medication group, and blank ointment was applied to the paws of the rats in the blank group (as blank control). […] Table 5 lists the animal experimental combinations of chemotherapy drugs and NO-NSAID ointment, as well as the corresponding experimental results (where the value in the control rate column=the incidence rate of hand-foot syndrome in the blank group−the incidence rate of hand-foot syndrome in the treatment group).

[3] = system: hand-foot syndrome caused by anti-tumor agents; assay: Treatment of established hand-foot syndrome caused by anti-tumor agents in rats (Table 4); type: in vivo
Experimental: After the rats (about 200 g) were fed and adapted for one week, the rats were divided into groups of 10 rats for gavage administration experiment. The anti-tumor agent was dissolved in a mixed solution of Cremophor EL:ethanol=1:1, and diluted with PBS to the required concentration (diluted about 3 times with PBS solution) before gavage. […] Specific experimental procedures followed those outlined in the prevention experiment. […] Table 4 lists the animal experiments using various anti-tumor agents and NO-NSAID ointment, as well as the corresponding experimental results (where the value in the control rate column=the incidence rate of hand-foot syndrome in the blank group−the incidence rate of hand-foot syndrome in the treatment group).

[4] = system: gastric epithelial cells (GES-1); assay: CCK-8 cell viability: alleviation of proliferative toxicity of anti-tumor agents on GES-1 (Table 8-3); type: cell-based, human; details: NO-NSAID 100 μM
Experimental: as §1, §2, §3, §4

[5] = system: hand-foot syndrome caused by macromolecular anti-tumor agents; assay: Prevention of hand-foot syndrome caused by macromolecular protein inhibitors in rats (Table 3); type: in vivo
[6] = system: human intestinal epithelial cells (FHs 74 Int); assay: CCK-8 cell viability: alleviation of proliferative toxicity of anti-tumor agents on FHs 74 Int (Table 8-4); type: cell-based; details: NO-NSAID 100 μM
Experimental: as §1, §2, §3, §4

[7] = system: human immortalized keratinocytes (HaCaT); assay: CCK-8 cell viability: alleviation of proliferative toxicity of anti-tumor agents on HaCaT (Table 8-1); type: cell-based; details: NO-NSAID 100 μM, percentage increase in viable cells vs anti-tumor agent alone
Experimental: as §1, §2, §3, §4

`COc1ccc2cc(C(C)C(=O)OCCCCO[N+](=O)[O-])ccc2c1` (stereo not drawn) [Compound A5] was tested, and the “Response rate % (average)” value ([1]; Afatinib (10 μM)) was 36%, the “Response rate % (average)” value ([1]; Cabozantinib (5 μM)) was 32% and the “Response rate % (average)” value ([1]; Dabrafenib (10 μM)) was 8%. For the same molecule, the “Response rate % (average)” value ([1]; Everolimus (5 μM)) was 10%, the “Response rate % (average)” value ([1]; Infigratinib (15 μM)) was 17% and the “Response rate % (average)” value ([1]; Lapatinib (5 μM)) was 22%. For the same molecule, the “Response rate % (average)” value ([1]; Lenvatinib (10 μM)) was 25%, the “Response rate % (average)” value ([1]; Olmutinib (10 μM)) was 38% and the “Response rate % (average)” value ([1]; Regorafenib (5 μM)) was −2%. The “Response rate % (average)” value ([1]; Selumetinib (5 μM)) was 8%, the “Response rate % (average)” value ([1]; Sorafenib (5 μM)) was 28% and the “Response rate % (average)” value ([1]; Sunitinib (5 μM)) was 29%. For the same molecule, the Control rate ([2]; Acelarin 130 mg/kg twice a week, ointment 1% wt, Days 30) was 28.57%, the Control rate ([2]; Acelarin 130 mg/kg twice a week, ointment 2.50% wt, Days 30) was 57.14% and the Control rate ([2]; Capecitabine 4000 mg/kg once a day, ointment 1% wt, Days 40) was 12.50%. It also gave a Control rate ([2]; Capecitabine 4000 mg/kg once a day, ointment 2.50% wt, Days 40) of 22.22%, a Control rate ([2]; Capecitabine 4000 mg/kg once a day, ointment 5% wt, Days 40) of 50.00% and a Control rate ([2]; Cytarabine 120 mg/kg twice a day, ointment 1% wt, Days 30) of 14.29%. For the same molecule, the Control rate ([2]; Cytarabine 120 mg/kg twice a day, ointment 2.50% wt, Days 30) was 28.57%, the Control rate ([2]; Cytarabine 120 mg/kg twice a day, ointment 5% wt, Days 30) was 57.14% and the Control rate ([2]; Doxorubicin 7 mg/kg once every three days, ointment 1% wt, Days 30) was 37.50%. The Control rate ([2]; Doxorubicin 7 mg/kg once every three days, ointment 2.50% wt, Days 30) was 50.00%, the Response rate ([3]; Apatinib 105 mg/kg once every two days, ointment 2.50% wt, Days 6) was 28.57% and the Response rate ([3]; Cabozantinib 50 mg/kg once every two days, ointment 1% wt, Days 11) was 33.33%. It also gave a Response rate ([3]; Encorafenib 80 mg/kg once every two days, ointment 2.50% wt, Days 7) of 40.00%, a Response rate ([3]; Erdafitinib 45 mg/kg once every two days, ointment 2.50% wt, Days 13) of 40.00% and a Response rate ([3]; Fruquintinib 40 mg/kg once every two days, ointment 2.50% wt, Days 8) of 28.57%. For the same molecule, the Response rate ([3]; Lenvatinib 65 mg/kg once a day, ointment 2.50% wt, Days 12) was 42.86%, the Response rate ([3]; Olmutinib 100 mg/kg once every two days, ointment 2.50% wt, Days 10) was 50.00% and the Response rate ([3]; Regorafenib 90 mg/kg once every two days, ointment 5% wt, Days 6) was 57.14%. The Response rate ([3]; Sorafenib 80 mg/kg once every two days, ointment 2.50% wt, Days 5) was 50.00%, the Response rate ([3]; Sunitinib 120 mg/kg once every two days, ointment 2.50% wt, Days 7) was 33.33% and the “Response rate % (average)” value ([4]; Afatinib (10 μM)) was 18%. The “Response rate % (average)” value ([4]; Cabozantinib (5 μM)) was 37%, the “Response rate % (average)” value ([4]; Dabrafenib (10 μM)) was 12% and the “Response rate % (average)” value ([4]; Everolimus (5 μM)) was 33%. For the same molecule, the “Response rate % (average)” value ([4]; Infigratinib (15 μM)) was 36%, the “Response rate % (average)” value ([4]; Lapatinib (5 μM)) was 40% and the “Response rate % (average)” value ([4]; Lenvatinib (10 μM)) was 29%. The “Response rate % (average)” value ([4]; Olmutinib (10 μM)) was 35%, the “Response rate % (average)” value ([4]; Regorafenib (5 μM)) was 14% and the “Response rate % (average)” value ([4]; Selumetinib (5 μM)) was 12%. The “Response rate % (average)” value ([4]; Sorafenib (5 μM)) was 22%, the “Response rate % (average)” value ([4]; Sunitinib (5 μM)) was 21% and the Control rate ([5]; Bevacizumab, 5-FU combination, tail vein injection once a week, ointment 2.50% wt, Days 18) was 50.00%. It also gave a Control rate ([5]; Bevacizumab, 5-FU combination, tail vein injection once a week, ointment 5% wt, Days 18) of 66.67%, a Control rate ([5]; Ramucirumab combined with paclitaxel, intraperitoneal injection once a week, ointment 2.50% wt, Days 23) of 33.33% and a Control rate ([5]; Ramucirumab combined with paclitaxel, intraperitoneal injection once a week, ointment 5% wt, Days 23) of 50.00%. For the same molecule, the “Response rate % (average)” value ([6]; Afatinib (10 μM)) was 34%, the “Response rate % (average)” value ([6]; Cabozantinib (5 μM)) was 36% and the “Response rate % (average)” value ([6]; Dabrafenib (10 μM)) was −3%. The “Response rate % (average)” value ([6]; Everolimus (5 μM)) was 28%, the “Response rate % (average)” value ([6]; Infigratinib (15 μM)) was 16% and the “Response rate % (average)” value ([6]; Lapatinib (5 μM)) was 43%. The “Response rate % (average)” value ([6]; Lenvatinib (10 μM)) was 32%, the “Response rate % (average)” value ([6]; Olmutinib (10 μM)) was 31% and the “Response rate % (average)” value ([6]; Regorafenib (5 μM)) was 17%. The “Response rate % (average)” value ([6]; Selumetinib (5 μM)) was 23%, the “Response rate % (average)” value ([6]; Sorafenib (5 μM)) was 24% and the “Response rate % (average)” value ([6]; Sunitinib (5 μM)) was 38%. The “Response rate % (average)” value ([7]; Afatinib (10 μM)) was 32%, the “Response rate % (average)” value ([7]; Cabozantinib (5 μM)) was 44% and the “Response rate % (average)” value ([7]; Dabrafenib (10 μM)) was 7%. The “Response rate % (average)” value ([7]; Everolimus (5 μM)) was 9%, the “Response rate % (average)” value ([7]; Infigratinib (15 μM)) was 12% and the “Response rate % (average)” value ([7]; Lapatinib (5 μM)) was 41%. The “Response rate % (average)” value ([7]; Lenvatinib (10 μM)) was 9%, the “Response rate % (average)” value ([7]; Olmutinib (10 μM)) was 40% and the “Response rate % (average)” value ([7]; Regorafenib (5 μM)) was 22%. For the same molecule, the “Response rate % (average)” value ([7]; Selumetinib (5 μM)) was 13%, the “Response rate % (average)” value ([7]; Sorafenib (5 μM)) was 31% and the “Response rate % (average)” value ([7]; Sunitinib (5 μM)) was 33%.
